Reference: patent publication US8163927B2, “Azabicyclo [3.1.0] hexane derivatives as modulators of dopamine D3 receptors” (Glaxo Group Limited, priority 2006, dated 2012)

Target: T1, D2 receptors (Homo sapiens, UniProt P14416)
T1 construct: expressed in transfected cells
Assay: GTPS scintillation proximity assay (GTPS-SPA), CHO_D2 cell membranes
Format: biochemical
Settings: up to the highest concentration tested in the assay (3 μM)
Experimental: Functional potency of compounds of this invention can be measured by the following GTPS scintillation proximity assay (GTPS-SPA). Cells used in the study are Chinese Hamster Ovary (CHO) Cells.
All steps are performed at 4° C. Cell membranes are prepared as follows. Cell pellets are resuspended in 10 volumes of 50 mM HEPES, 1 mM EDTA pH 7.4, using KOH.
Cells are homogenised within a glass waring blender for 2 bursts of 15 secs in 200 mls of buffer (50 mM HEPES, 1 mM leupeptin, 25 μg/ml bacitracin, 1 mM EDTA, 1 mM PMSF, 2 μM Pepstatin A). (the latter 2 reagents added as fresh ×100 and ×500 stocks respectively in ethanol). […]
The final top concentration of test drug is 3 μM in the assay and 11 points serial dilution curves 1:4 in 100% DMSO are carried out using a Biomek FX. […] The final assay cocktail (45.5 μl) is incubated at room temperature to equilibrate for 3-6 hours before reading on a ViewLux™ (613/55 filter) luminescence imager 5 min/plate.
The effect of the test drug over the basal generates fpKi values of test drug are calculated from the IC50 generated by “antagonist format” experiment, using Cheng & Prusoff equation: fKi=IC50/1+([A]/EC50) where: [A] is the concentration of the agonist Quinelorane in the assay and EC50 is the Quinelorane EC50 value obtained in the same experiment. fpKi is defined as −log fKi. […]

T1 sequence (P14416 whole entry): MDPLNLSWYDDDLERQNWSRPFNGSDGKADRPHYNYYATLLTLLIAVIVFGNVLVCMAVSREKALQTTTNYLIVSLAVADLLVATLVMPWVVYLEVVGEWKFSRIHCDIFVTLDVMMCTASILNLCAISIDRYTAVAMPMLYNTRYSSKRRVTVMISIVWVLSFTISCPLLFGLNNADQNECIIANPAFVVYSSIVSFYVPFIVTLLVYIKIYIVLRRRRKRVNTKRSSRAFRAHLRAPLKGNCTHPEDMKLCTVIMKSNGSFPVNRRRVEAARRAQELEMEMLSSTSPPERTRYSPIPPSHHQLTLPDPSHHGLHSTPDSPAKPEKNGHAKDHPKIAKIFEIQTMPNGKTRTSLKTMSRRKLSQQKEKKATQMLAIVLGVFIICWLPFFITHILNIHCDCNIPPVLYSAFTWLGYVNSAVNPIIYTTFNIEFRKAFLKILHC

| SMILES | activity in the D2 GTPS-SPA assay |
| --- | --- |
| COc1cccn(CCCCN2C[C@@H]3C[C@]3(c3ccc(C(F)(F)F)cc3)C2)c1=O.Cl [Example E8, 3-(methyloxy)-1-(4-{(1S,5R)-1-[4-(trifluoromethyl)phenyl]-3-azabicyclo[3.1.0]hex-3-yl}butyl)-2(1H)-pyridinone hydrochloride] | no activity |
| Cl.N#Cc1cccn(CCCCN2C[C@@H]3C[C@]3(c3ccc(C(F)(F)F)cc3)C2)c1=O [Example E9, 2-oxo-1-(4-{(1S,5R)-1-[4-(trifluoromethyl)phenyl]-3-azabicyclo[3.1.0]hex-3-yl}butyl)-1,2-dihydro-3-pyridinecarbonitrile hydrochloride] | no activity |
